In US20100298141A1, “SUBSTITUTED PYRIDINE N-OXIDE HERBICIDES” (E. I. DU PONT DE NEMOURS AND COMPANY, priority 2007, published 2010):

Columns and labels:
field sandbur = assay: Test G preemergence test; format: in vivo, Cenchrus incertus; settings: scale 0 to 100
annual bluegrass = assay: Test D preemergence test; format: in vivo, Poa annua; settings: scale 0 to 100
In short: (§1)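 Seeds planted and treated preemergence with test chemicals formulated in a non-phytotoxic solvent mixture containing surfactant. A dash means no test result.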

green foxtail = assay: Test D preemergence test; format: in vivo, Setaria viridis; settings: scale 0 to 100
In short: as §1

tall waterhemp = assay: Test G preemergence test; format: in vivo, Amaranthus tuberculatos; settings: scale 0 to 100
goosegrass = assay: Test G preemergence test; format: in vivo, Eleusine indica; settings: scale 0 to 100
lambsquarters = assay: Test G preemergence test; format: in vivo, Chenopodium album; settings: scale 0 to 100
windgrass = assay: Test D preemergence test; format: in vivo, Apera spica-venti; settings: scale 0 to 100
In short: as §1

giant foxtail = assay: Test G preemergence test; format: in vivo, Setaria faberii; settings: scale 0 to 100
winter barley = assay: Test D preemergence test; format: in vivo, Hordeum vulgare
In short: as §1

eastern black nightshade = assay: Test G preemergence test; format: in vivo, Solanum ptycanthum; settings: scale 0 to 100
duck salad = assay: Test B flooded paddy test; format: in vivo, Heteranthera limosa; settings: Flood, 250 g ai/ha, 13 to 15 days; scale 0 to 100, 0 no effect, 100 complete control
Excerpt: (§2) At time of treatment, test pots were flooded to 3 cm above the soil surface, treated by application of test compounds directly to the paddy water, and then maintained at that water depth for the duration of the test. Treated plants and controls were maintained in a greenhouse for 13 to 15 days, after which time all species were compared to controls and visually evaluated. […] A dash (-) response means no test result.

field violet = assay: Test D preemergence test; format: in vivo, Viola arvensis; settings: scale 0 to 100
In short: as §1

broadleaf signalgrass = assay: Test G preemergence test; format: in vivo, Brachiaria platyphylla; settings: scale 0 to 100
barnyardgrass [1] = assay: Test G preemergence test; format: in vivo, Echinochloa crus-galli; settings: scale 0 to 100
soybean = assay: Test G preemergence test; format: in vivo, Glycine max; settings: scale 0 to 100
millet = assay: Test G preemergence test; format: in vivo, Panicum miliaceum; settings: scale 0 to 100
woolly cupgrass = assay: Test G preemergence test; format: in vivo, Eriochloa villosa; settings: scale 0 to 100
wild oat = assay: Test D preemergence test; format: in vivo, Avena fatua; settings: scale 0 to 100
In short: as §1

rice = assay: Test B flooded paddy test; format: in vivo, Oryza sativa; settings: Flood, 250 g ai/ha, 13 to 15 days; scale 0 to 100, 0 no effect, 100 complete control
Excerpt: as §2

umbrella sedge = assay: Test B flooded paddy test; format: in vivo, Cyperus difformis; settings: Flood, 250 g ai/ha, 13 to 15 days; scale 0 to 100, 0 no effect, 100 complete control
Excerpt: as §2

large crabgrass = assay: Test G preemergence test; format: in vivo, Digitaria sanguinalis; settings: scale 0 to 100
littleseed canarygrass = assay: Test D preemergence test; format: in vivo, Phalaris minor; settings: scale 0 to 100
In short: as §1

barnyardgrass [2] = assay: Test B flooded paddy test; format: in vivo, Echinochloa crus-galli; settings: Flood, 250 g ai/ha, 13 to 15 days; scale 0 to 100, 0 no effect, 100 complete control
Excerpt: as §2

corn = assay: Test G preemergence test; format: in vivo, Zea mays; settings: scale 0 to 100
millet foxtail = assay: Test G preemergence test; format: in vivo, Setaria italica; settings: scale 0 to 100
winter wheat = assay: Test D preemergence test; format: in vivo, Triticum aestivum; settings: scale 0 to 100
In short: as §1

Cc1cc[n+]([O-])c(S(=O)(=O)Cc2c(C(F)(F)F)nn(C)c2OC(F)F)c1 [Compound 2]
Plant response rating, Sandbur (field sandbur; 31 g ai/ha): 0 | Plant response rating, Sandbur (field sandbur; 62 g ai/ha): 0 | Plant response rating, Sandbur (field sandbur; 125 g ai/ha): 85 | Plant response rating, Sandbur (field sandbur; 250 g ai/ha): 100 | Plant response rating, Bluegrass (annual bluegrass; 31 g ai/ha): 20 | Plant response rating, Bluegrass (annual bluegrass; 62 g ai/ha): 40 | Plant response rating, Bluegrass (annual bluegrass; 125 g ai/ha): 100 | Plant response rating, Bluegrass (annual bluegrass; 250 g ai/ha): 100 | Plant response rating, Foxtail, Green (green foxtail; 31 g ai/ha): 0 | Plant response rating, Foxtail, Green (green foxtail; 62 g ai/ha): 30 | Plant response rating, Foxtail, Green (green foxtail; 125 g ai/ha): 55 | Plant response rating, Foxtail, Green (green foxtail; 250 g ai/ha): 65 | Plant response rating, Waterhemp (tall waterhemp; 31 g ai/ha): 20 | Plant response rating, Waterhemp (tall waterhemp; 62 g ai/ha): 100 | Plant response rating, Waterhemp (tall waterhemp; 125 g ai/ha): 100 | Plant response rating, Waterhemp (tall waterhemp; 250 g ai/ha): 100 | Plant response rating, Goosegrass (goosegrass; 31 g ai/ha): 95 | Plant response rating, Goosegrass (goosegrass; 62 g ai/ha): 100 | Plant response rating, Goosegrass (goosegrass; 125 g ai/ha): 100 | Plant response rating, Goosegrass (goosegrass; 250 g ai/ha): 100 | Plant response rating, Lambsquarters (lambsquarters; 31 g ai/ha): 0 | Plant response rating, Lambsquarters (lambsquarters; 62 g ai/ha): 0 | Plant response rating, Lambsquarters (lambsquarters; 125 g ai/ha): 10 | Plant response rating, Lambsquarters (lambsquarters; 250 g ai/ha): 15 | Plant response rating, Windgrass (windgrass; 31 g ai/ha): 100 | Plant response rating, Windgrass (windgrass; 62 g ai/ha): 100 | Plant response rating, Windgrass (windgrass; 125 g ai/ha): 100 | Plant response rating, Windgrass (windgrass; 250 g ai/ha): 100 | Plant response rating, Foxtail, Giant (giant foxtail; 31 g ai/ha): 0 | Plant response rating, Foxtail, Giant (giant foxtail; 62 g ai/ha): 35 | Plant response rating, Foxtail, Giant (giant foxtail; 125 g ai/ha): 100 | Plant response rating, Foxtail, Giant (giant foxtail; 250 g ai/ha): 100 | Plant response rating, Barley (winter barley; Preemergence, 62 g ai/ha, scale 0 to 100): 0 | Plant response rating, Barley (winter barley; Preemergence, 125 g ai/ha, scale 0 to 100): 10 | Plant response rating, Barley (winter barley; Preemergence, 31 g ai/ha, scale 0 to 100): 0 | Plant response rating, Barley (winter barley; preemergence, 250 g ai/ha, scale 0 (no effect) to 100 (complete control)): 10 | Plant response rating, Nightshade (eastern black nightshade; 31 g ai/ha): 0 | Plant response rating, Nightshade (eastern black nightshade; 62 g ai/ha): 40 | Plant response rating, Nightshade (eastern black nightshade; 125 g ai/ha): 40 | Plant response rating, Nightshade (eastern black nightshade; 250 g ai/ha): 45 | Plant response rating, Ducksalad (duck salad): 100 | Plant response rating, Field Violet (field violet; 31 g ai/ha): 0 | Plant response rating, Field Violet (field violet; 62 g ai/ha): 0 | Plant response rating, Field Violet (field violet; 125 g ai/ha): 95 | Plant response rating, Field Violet (field violet; 250 g ai/ha): 100 | Plant response rating, Signalgrass (broadleaf signalgrass; 31 g ai/ha): 0 | Plant response rating, Signalgrass (broadleaf signalgrass; 62 g ai/ha): 50 | Plant response rating, Signalgrass (broadleaf signalgrass; 125 g ai/ha): 65 | Plant response rating, Signalgrass (broadleaf signalgrass; 250 g ai/ha): 65 | Plant response rating, Barnyardgrass (barnyardgrass [1]; 31 g ai/ha): 15 | Plant response rating, Barnyardgrass (barnyardgrass [1]; 62 g ai/ha): 100 | Plant response rating, Barnyardgrass (barnyardgrass [1]; 125 g ai/ha): 100 | Plant response rating, Barnyardgrass (barnyardgrass [1]; 250 g ai/ha): 100 | Plant response rating, Soybean (soybean; 31 g ai/ha): 0 | Plant response rating, Soybean (soybean; 62 g ai/ha): 0 | Plant response rating, Soybean (soybean; 125 g ai/ha): 0 | Plant response rating, Soybean (soybean; 250 g ai/ha): 0 | Plant response rating, Millet (millet; 31 g ai/ha): 0 | Plant response rating, Millet (millet; 62 g ai/ha): 0 | Plant response rating, Millet (millet; 125 g ai/ha): 75 | Plant response rating, Millet (millet; 250 g ai/ha): 100 | Plant response rating, Cupgrass, Woolly (woolly cupgrass; 31 g ai/ha): 0 | Plant response rating, Cupgrass, Woolly (woolly cupgrass; 62 g ai/ha): 0 | Plant response rating, Cupgrass, Woolly (woolly cupgrass; 125 g ai/ha): 95 | Plant response rating, Cupgrass, Woolly (woolly cupgrass; 250 g ai/ha): 95 | Plant response rating, Oat, Wild (wild oat; 31 g ai/ha): 0 | Plant response rating, Oat, Wild (wild oat; 62 g ai/ha): 0 | Plant response rating, Oat, Wild (wild oat; 125 g ai/ha): 0 | Plant response rating, Oat, Wild (wild oat; 250 g ai/ha): 10 | Plant response rating, Rice, Transplanted (rice): 80 | Plant response rating, Umbrella Sedge (umbrella sedge): 100 | Plant response rating, Crabgrass, Large (large crabgrass; 31 g ai/ha): 0 | Plant response rating, Crabgrass, Large (large crabgrass; 62 g ai/ha): 75 | Plant response rating, Crabgrass, Large (large crabgrass; 125 g ai/ha): 100 | Plant response rating, Crabgrass, Large (large crabgrass; 250 g ai/ha): 100 | Plant response rating, Canarygrass (littleseed canarygrass; 31 g ai/ha): 0 | Plant response rating, Canarygrass (littleseed canarygrass; 62 g ai/ha): 60 | Plant response rating, Canarygrass (littleseed canarygrass; 125 g ai/ha): 100 | Plant response rating, Canarygrass (littleseed canarygrass; 250 g ai/ha): 100 | Plant response rating, Barnyardgrass (barnyardgrass [2]): 80 | Plant response rating, Corn (corn; 31 g ai/ha): 0 | Plant response rating, Corn (corn; 62 g ai/ha): 0 | Plant response rating, Corn (corn; 125 g ai/ha): 0 | Plant response rating, Corn (corn; 250 g ai/ha): 10 | Plant response rating, Foxtail, Millet (millet foxtail; 31 g ai/ha): 0 | Plant response rating, Foxtail, Millet (millet foxtail; 62 g ai/ha): 100 | Plant response rating, Foxtail, Millet (millet foxtail; 125 g ai/ha): 100 | Plant response rating, Foxtail, Millet (millet foxtail; 250 g ai/ha): 100 | Plant response rating, Wheat, Winter (winter wheat; 31 g ai/ha): 0 | Plant response rating, Wheat, Winter (winter wheat; 62 g ai/ha): 0 | Plant response rating, Wheat, Winter (winter wheat; 125 g ai/ha): 15 | Plant response rating, Wheat, Winter (winter wheat; 250 g ai/ha): 25
